Measured values from patent publication US20110105623A1 (Biogenic Innovations, LLC, priority 2009, published 2011).
Several values for one entry are separate records, joined by “and”; a condition that tells them apart may be missing. Equal values may be shown once.

What was measured:
[1] = test system: Pseudomonas aeruginosa; assay: USP <51> AET in cosmetic cream/composition; format: cell-based; conditions: for AET microorganism count: 48 hrs-28 days; for Log Reduction from Initial Microorganism Inoculum: 14, 28 Days
[2] = test system: Lactobacillus acidophilus; assay: Recovery from Acidophilus milk fortified with MSM into broth without MSM; format: cell-based; conditions: for Recovery of Lactobacillus acidophilus in Milk fortified with MSM Day 14, initial start data: Day 14-0; for Lag Recovery of Lactobacillus acidophilus in Milk fortified with MSM Day 14 / Lag Recovery of Lactobacillus acidophilus in Milk fortified with MSM Day 21 / Lag Recovery of Lactobacillus acidophilus in Milk fortified with MSM Day 28 / Lag Recovery of Lactobacillus acidophilus in Milk fortified with MSM Day 7: duplicates; for Lag Recovery of Lactobacillus acidophilus in Milk fortified with MSM Day 7: 5% MSM
Procedure: The Acidophilus milk was low fat (Darigold). […] All preparations and plating was conducted at room temperature.
The recovery study was run parallel to the study done on the affects of MSM on growth of Lactobacillus acidophilus in Acidophilus milk fortified with MSM. The recovery growth rate was analyzed on Day 7, Day 14, Day 21 and Day 28. For Table 27, the growth for Day x with no time is calculated from the initial growth study with the dilution factor into the log growth. […] Table 28 takes the value of 2.00 as the starting value.

Substance: Methylsulfonylmethane [MSM]
- AET microorganism count ([1]; 10% MSM in Preservative Free Cosmetic Composition #1, 48 hours after inoculation): 7.3 × 10^3
- AET microorganism count ([1]; 10% MSM in Preservative Free Cosmetic Composition #1, 7 days after inoculation): <10
- AET microorganism count ([1]; 10% MSM in cosmetic cream without preservative): <10
- Log Reduction from Initial Microorganism Inoculum ([1]; 10% MSM in preservative-free jojoba cream): 5.3 log
- Log Reduction from Initial Microorganism Inoculum ([1]; 10% MSM, Composition #1): 5.8 log
- Log Reduction from Initial Microorganism Inoculum ([1]; 10% MSM, Composition #2): 5.8 log
- Recovery of Lactobacillus acidophilus in Milk fortified with MSM Day 7, initial start data ([2]; 0.5% MSM): 8.68 logs
- Recovery of Lactobacillus acidophilus in Milk fortified with MSM Day 7, average recovery ([2]; 0.5% MSM, Day 7-24): 12.94 logs
- Recovery of Lactobacillus acidophilus in Milk fortified with MSM Day 7, average recovery ([2]; 0.5% MSM, Day 7-48): 12.69 logs
- Recovery of Lactobacillus acidophilus in Milk fortified with MSM Day 7, average recovery ([2]; 0.5% MSM, Day 7-72): 13.07 logs
- Recovery of Lactobacillus acidophilus in Milk fortified with MSM Day 14, initial start data ([2]; 0.5% MSM): 4.22 logs
- Recovery of Lactobacillus acidophilus in Milk fortified with MSM Day 14, average recovery ([2]; 0.5% MSM, Day 14-24): 10.15 logs
- Lag Recovery of Lactobacillus acidophilus in Milk fortified with MSM Day 14 ([2]; 0.5% MSM, Day 14-24): 10.19 logs and 10.10 logs
- Recovery of Lactobacillus acidophilus in Milk fortified with MSM Day 14, average recovery ([2]; 0.5% MSM, Day 14-48): 12.84 logs
- Lag Recovery of Lactobacillus acidophilus in Milk fortified with MSM Day 14 ([2]; 0.5% MSM, Day 14-48): 12.95 logs and 12.72 logs
- Recovery of Lactobacillus acidophilus in Milk fortified with MSM Day 14, average recovery ([2]; 0.5% MSM, Day 14-72): 12.86 logs
- Lag Recovery of Lactobacillus acidophilus in Milk fortified with MSM Day 14 ([2]; 0.5% MSM, Day 14-72): 13.02 logs and 12.70 logs
- Recovery of Lactobacillus acidophilus in Milk fortified with MSM Day 21, initial start data ([2]; 0.5% MSM): 3.37 logs
- Recovery of Lactobacillus acidophilus in Milk fortified with MSM Day 21, average recovery ([2]; 0.5% MSM, Day 21-24): 12.91 logs
- Lag Recovery of Lactobacillus acidophilus in Milk fortified with MSM Day 21 ([2]; 0.50% MSM, Day 21-24): 12.89 logs and 12.93 logs
- Recovery of Lactobacillus acidophilus in Milk fortified with MSM Day 21, average recovery ([2]; 0.5% MSM, Day 21-48): 13.02 logs
- Lag Recovery of Lactobacillus acidophilus in Milk fortified with MSM Day 21 ([2]; 0.50% MSM, Day 21-48): 12.94 logs and 13.1 logs
- Recovery of Lactobacillus acidophilus in Milk fortified with MSM Day 21, average recovery ([2]; 0.5% MSM, Day 21-72): 11.30 logs
- Lag Recovery of Lactobacillus acidophilus in Milk fortified with MSM Day 21 ([2]; 0.50% MSM, Day 21-72): 12.29 logs and 10.31 logs
- Recovery of Lactobacillus acidophilus in Milk fortified with MSM Day 28, initial start data ([2]; 0.5% MSM): 1.00 logs
- Recovery of Lactobacillus acidophilus in Milk fortified with MSM Day 28, average recovery ([2]; 0.5% MSM, Day 28-24): 6.29 logs
- Lag Recovery of Lactobacillus acidophilus in Milk fortified with MSM Day 28 ([2]; 0.50% MSM, Day 28-24): 6.11 logs and 6.47 logs
- Recovery of Lactobacillus acidophilus in Milk fortified with MSM Day 28, average recovery ([2]; 0.5% MSM, Day 28-48): 13.33 logs
- Lag Recovery of Lactobacillus acidophilus in Milk fortified with MSM Day 28 ([2]; 0.50% MSM, Day 28-48): 13.66 logs and 12.99 logs
- Recovery of Lactobacillus acidophilus in Milk fortified with MSM Day 28, average recovery ([2]; 0.5% MSM, Day 28-72): 13.00 logs
- Lag Recovery of Lactobacillus acidophilus in Milk fortified with MSM Day 28 ([2]; 0.50% MSM, Day 28-72): 12.99 logs and 13.01 logs
- Day 7 log recovery growth rate increase from start time of zero ([2]; 0.5% MSM, Hour 0): 0.00 logs
- Day 14 log recovery growth rate increase from start time of zero ([2]; 0.5% MSM, Hour 0): 0.00 logs
- Day 21 log recovery growth rate increase from start time of zero ([2]; 0.5% MSM, Hour 0): 0.00 logs
- Day 7 log recovery growth rate increase from start time of zero ([2]; 0.5% MSM, Hour 24): 4.26 logs
- Day 14 log recovery growth rate increase from start time of zero ([2]; 0.5% MSM, Hour 24): 5.93 logs
- Day 21 log recovery growth rate increase from start time of zero ([2]; 0.5% MSM, Hour 24): 9.54 logs
- Day 7 log recovery growth rate increase from start time of zero ([2]; 0.5% MSM, Hour 48): −0.26 logs
- Day 14 log recovery growth rate increase from start time of zero ([2]; 0.5% MSM, Hour 48): 2.69 logs
- Day 21 log recovery growth rate increase from start time of zero ([2]; 0.5% MSM, Hour 48): 0.11 logs
- Day 7 log recovery growth rate increase from start time of zero ([2]; 0.5% MSM, Hour 72): 0.39 logs
- Day 14 log recovery growth rate increase from start time of zero ([2]; 0.5% MSM, Hour 72): 0.03 logs
- Day 21 log recovery growth rate increase from start time of zero ([2]; 0.5% MSM, Hour 72): −1.72 logs
- Day 28 log recovery growth rate increase from start time of zero ([2]; 0.5% MSM, Time 0): 0.00 logs
- Day 28 log recovery growth rate increase from start time of zero ([2]; 0.5% MSM, Time 24): 5.29 logs
- Day 28 log recovery growth rate increase from start time of zero ([2]; 0.5% MSM, Time 48): 7.04 logs
- Day 28 log recovery growth rate increase from start time of zero ([2]; 0.5% MSM, Time 72): −0.32 logs
- Recovery of Lactobacillus acidophilus in Milk fortified with MSM Day 7, initial start data ([2]; 5.0% MSM): 8.71 logs
- Recovery of Lactobacillus acidophilus in Milk fortified with MSM Day 7, average recovery ([2]; 5.0% MSM, Day 7-24): 12.71 logs
- Lag Recovery of Lactobacillus acidophilus in Milk fortified with MSM Day 7 ([2]; Day 7-24): 12.12 logs and 13.29 logs
- Recovery of Lactobacillus acidophilus in Milk fortified with MSM Day 7, average recovery ([2]; 5.0% MSM, Day 7-48): 13.17 logs
- Lag Recovery of Lactobacillus acidophilus in Milk fortified with MSM Day 7 ([2]; Day 7-48): 13.09 logs and 13.25 logs
- Recovery of Lactobacillus acidophilus in Milk fortified with MSM Day 7, average recovery ([2]; 5.0% MSM, Day 7-72): 12.99 logs
- Lag Recovery of Lactobacillus acidophilus in Milk fortified with MSM Day 7 ([2]; Day 7-72): 13.1 logs and 12.87 logs
- recovery log growth lower than the control ([2]; 5.0% MSM, Day 14, first 24 hours): 1.02 logs
- Recovery of Lactobacillus acidophilus in Milk fortified with MSM Day 14, initial start data ([2]; 5.0% MSM): 6.04 logs
- Recovery of Lactobacillus acidophilus in Milk fortified with MSM Day 14, average recovery ([2]; 5.0% MSM, Day 14-24): 9.60 logs
- Lag Recovery of Lactobacillus acidophilus in Milk fortified with MSM Day 14 ([2]; 5.0% MSM, Day 14-24): 9.6 logs
- Recovery of Lactobacillus acidophilus in Milk fortified with MSM Day 14, average recovery ([2]; 5.0% MSM, Day 14-48): 13.02 logs
- Lag Recovery of Lactobacillus acidophilus in Milk fortified with MSM Day 14 ([2]; 5.0% MSM, Day 14-48): 12.99 logs and 13.04 logs
- Recovery of Lactobacillus acidophilus in Milk fortified with MSM Day 14, average recovery ([2]; 5.0% MSM, Day 14-72): 12.43 logs
- Lag Recovery of Lactobacillus acidophilus in Milk fortified with MSM Day 14 ([2]; 5.0% MSM, Day 14-72): 12.65 logs and 12.21 logs
- Recovery of Lactobacillus acidophilus in Milk fortified with MSM Day 21, initial start data ([2]; 5.0% MSM): 3.56 logs
- Recovery of Lactobacillus acidophilus in Milk fortified with MSM Day 21, average recovery ([2]; 5.0% MSM, Day 21-24): 9.69 logs
- Recovery of Lactobacillus acidophilus in Milk fortified with MSM Day 21, average recovery ([2]; 5.0% MSM, Day 21-48): 13.08 logs
- Recovery of Lactobacillus acidophilus in Milk fortified with MSM Day 21, average recovery ([2]; 5.0% MSM, Day 21-72): 13.15 logs
- Recovery of Lactobacillus acidophilus in Milk fortified with MSM Day 28, initial start data ([2]; 5.0% MSM): 0.52 logs
- Recovery of Lactobacillus acidophilus in Milk fortified with MSM Day 28, average recovery ([2]; 5.0% MSM, Day 28-24): 5.56 logs
- Lag Recovery of Lactobacillus acidophilus in Milk fortified with MSM Day 28 ([2]; 5.0% MSM, Day 28-24): 5.64 logs and 5.48 logs
- Recovery of Lactobacillus acidophilus in Milk fortified with MSM Day 28, average recovery ([2]; 5.0% MSM, Day 28-48): 12.87 logs
- Lag Recovery of Lactobacillus acidophilus in Milk fortified with MSM Day 28 ([2]; 5.0% MSM, Day 28-48): 12.58 logs and 13.16 logs
- Recovery of Lactobacillus acidophilus in Milk fortified with MSM Day 28, average recovery ([2]; 5.0% MSM, Day 28-72): 12.48 logs
- Lag Recovery of Lactobacillus acidophilus in Milk fortified with MSM Day 28 ([2]; 5.0% MSM, Day 28-72): 12.49 logs and 12.47 logs
- Day 7 log recovery growth rate increase from start time of zero ([2]; 5.0% MSM, Hour 0): 0.00 logs
- Day 14 log recovery growth rate increase from start time of zero ([2]; 5.0% MSM, Hour 0): 0.00 logs
- Day 21 log recovery growth rate increase from start time of zero ([2]; 5.0% MSM, Hour 0): 0.00 logs
- Day 7 log recovery growth rate increase from start time of zero ([2]; 5.0% MSM, Hour 24): 4.00 logs
- Day 14 log recovery growth rate increase from start time of zero ([2]; 5.0% MSM, Hour 24): 3.56 logs
